Results from patent publication US4015017A, “Certain biphenyl derivatives used to treat disorders caused by increased capillary permeability” (Laboratoires Pharmascience, priority 1974, dated 1977).
Like-named read-outs stand apart in the source and are kept apart here.

Tests used:
[1] = target: T1, catechol-O-methyltransferase (Rattus norvegicus, UniProt P22734); assay: Protection of the catecholamines: incubation of catechol-O-methyltransferase with adrenalin and orthodiphenol (method of Axelrod); format: biochemical; settings: stoichiometric amounts of adrenalin and orthodiphenol, after 30 minutes
T1 sequence (P22734 1-221 isoform P22734-2): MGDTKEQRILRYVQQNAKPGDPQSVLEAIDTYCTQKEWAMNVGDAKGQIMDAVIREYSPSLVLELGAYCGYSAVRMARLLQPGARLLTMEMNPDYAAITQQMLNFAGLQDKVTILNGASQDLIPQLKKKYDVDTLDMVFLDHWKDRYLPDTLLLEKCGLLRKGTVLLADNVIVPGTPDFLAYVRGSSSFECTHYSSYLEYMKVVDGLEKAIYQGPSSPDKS
From the text: Whether administered orally or parenterally they undergo in the organism a monomethylation on one of the two hydroxyl groups, as do all orthodiphenols, (J. Axelrod and M. J. Laroche, 1959, Science, 130, p 800). This monomethylation is due to the action of the catechol-O-methyltransferases (C.O.M.T.), S-adenosyl-L-methionine providing the methyl radicals (J. Axelrod and R. Tomchick, 1958, J. Biol. Chem. 233 p.702). This methylation occurs in the physiological catecholamines, for example, adrenalin, as well as in the synthetic orthodiphenols.
As methylation is a first stage in the destructive pathway, this competition serves to protect the natural catecholamines from early destruction, (J. M. Gazave, P. Canu, M. Baques, and F. Martin, 1971, Biochem and Experim. Biol., X p.89).
Using the techniques of Axelrod et al (op.cit.) it is possible to quantify this effect for various compounds, as the intensity of the effect varies, being dependent on the chemical composition and physical properties, especially the solubility of the compound.
By incubating a catechol-O-methyltransferase with stoichiometric amounts of adrenalin and an orthodiphenol according to the method of Axelrod, determining the quantity of adrenalin protected ie. non-methylated after 30 minutes the extent of the protection given by the product studied can be evaluated.

[2] = test system: guinea pig; assay: Capillary resistance on the guinea pig (technique of Parrot and Canu); format: in vivo
From the text: Experiments on capillary resistance on the guinea pig using the technique of J-L. Parrot and P. Canu, 1964, Arch. […] (By comparison trioxyethylrutine gives an increase of 13%).

[3] = test system: mice; assay: Anti-inflammation effect on vessels using croton oil on mice (technique of Bounameaux and Lecomto); format: in vivo
From the text: Some of the compounds of the formula I have other interesting properties. Thus the anti-inflammation effect on vessels evaluated according to the technique of Y. Bounameaux and J. Lecomto, 1955, C.R. Soc.

[4] = in vivo; settings: rat, acute toxicity, oral administration, rats, read-out: DL 50 A.O
[5] = in vivo; settings: rat, ip, acute toxicity, intraperitoneal administration, rats, read-out: DL50 A. IP
[6] = test system: rats; assay: Research into the methemoglobinising properties (spectrophotometric technique of Evelyn and Malby); format: in vivo; settings: rats treated for 75 days at 0.20 g per kg body weight per day
From the text: Certain phenols, in particular pyrocatechol (1,2-dihydroxybenzene) and pyrogallol (1,2,3-trihydroxybenzene), when administered either orally or parenterally to an organism bring about a transformation of the oxyhaemoglobin of the blood to methemoglobin. In oxyhaemoglobin, the iron is in the ferrous state (Fe^+^+) and can transport oxygen; whereas in methemoglobin, the iron is in the ferric state (Fe ^+^+^+) and is unsuitable for transporting oxygen.
It therefore appeared necessary to try to discover if the polyhydroxy compounds used in the preparations of the present invention, in particular 2,3,3',4,4',5'-hexahydroxy benzophenone, would also act as methemoglobinising agents.
This study was carried out using pyrogallol as the comparative substance and the spectrophotometric technique of Evelyn and Malby, (in R. Lecoq, 1972, Analyses Medicales, 2, p.1699): […]

Row | protection of adrenalin (non-methylated) [1] | SMILES | increase in the capillary resistance [2] | further results
1 | 100% | O=C(C(=O)c1ccc(O)c(O)c1)c1ccc(O)c(O)c1 [3,3',4,4'-tetrahydroxybenzile, 3,3',4,4'-tetrahydroxybenzil] |  | 
2 | ≥ 90% | O=C(c1ccc(O)c(O)c1)c1cccc(O)c1O [2,3,3',4'-Tetrahydroxybenzophenone, 2,3,3',4'-tetrahydroxybenzophenone] | 56% | anti-inflammation effect on vessels [3]: anti-inflammatory properties
3 | 100% | O=C(c1ccc(O)c(O)c1)c1ccc(O)c(O)c1O [2,3,3',4,4'-pentahydroxybenzophenone] |  | 
4 | ≥ 90% | Oc1ccc(Cc2ccc(O)c(O)c2)cc1O [di-(3,4-dihydroxyphenyl) methane, di-(3,4-dihydroxyphenyl)-methane] |  | 
5 | 100% | O=C(c1ccc(O)c(O)c1)c1cc(O)c(O)c(O)c1 [3,3',4,4' ,5'-pentahydroxybenzophenone, 3,3',4,4',5'-pentahydroxybenzophenone] |  | anti-inflammation effect on vessels [3]: anti-inflammatory properties
6 | ≥ 90% | O=C(Cc1ccc(O)c(O)c1)c1ccc(O)c(O)c1 [β-(3,4-dihydroxyphenyl)-3,4-dihydroxyacetophenone] |  | 
7 |  | O=C(Cc1ccc(O)c(O)c1)c1ccc(O)c(O)c1O [β-(3,4-dihydroxyphenyl)-2,3,4-trihydroxyacetophenone] | 34% | LD50 [4]: 2000 mg/kg; LD50 [5]: 730 mg/kg
8 | 100% | O=C(c1ccc(O)c(O)c1)c1ccc(O)c(O)c1 [3,3',4,4'-tetrahydroxybenzophenone] |  | 
9 |  | C[C@@H]1O[C@@H](OC[C@H]2O[C@@H](Oc3c(-c4ccc(OCCO)c(OCCO)c4)oc4cc(OCCO)cc(O)c4c3=O)[C@H](O)[C@@H](O)[C@@H]2O)[C@H](O)[C@H](O)[C@H]1O [trioxyethylrutine, reference compound] | 13% | 

Row | SMILES | protection of adrenalin (non-methylated) [1] | increase in the capillary resistance [2] | further results
10 | O=C(c1cc(O)c(O)c(O)c1)c1ccc(O)c(O)c1O [2,3,3',4,4',5'-Hexahydroxybenzophenone, 2,3,3',4,4',5'-hexahydroxybenzophenone] | 100% | 82% | LD50 [4]: 1420 mg/kg; methemoglobin in the blood [6]: no methemoglobin could be detected; LD50 [5]: 355 mg/kg
